# According to patent US20260345619A1 (Principia Biopharma Inc., priority 2023, published 2026):
# Experiment: Asthma Quality of Life Questionnaire with Standardized Activities (AQLQ(S))
# Type: in vivo, human
# Details: mITT
# Description: The AQLQ(S) is a self-administered patient reported outcome to measure the functional impairments that are most troublesome to adolescents and adults ≥12 years of age as a result of their asthma.
# Asthma Quality of Life Questionnaire with Standardized Activities (AQLQ(S)) self-administered (≥12 years)
# The AQLQ(S) was designed as a self-administered patient reported outcome to measure the functional impairments that are most troublesome to adolescents and adults ≥12 years of age as a result of their asthma. The instrument is comprised of 32 items, each rated on a 7-point Likert scales from 1 to 7. The AQLQ(S) has 4 domains. The domains and the number of items in each domain are as follows: • Symptoms (12 items) • Activity limitation (11 items) • Emotional function (5 items) • Environmental stimuli (4 items)
# A global score is calculated ranging from 1 to 7 and a score by domain. Higher scores indicate better quality of life. […] Patients were to complete the questionnaire in an electronic diary during on-site visits.
# Secondary endpoints included pre-bronchodilator FEV1 change from baseline at EOT, ACQ-5 score change from baseline, and AQLQ score change from baseline. Other secondary and exploratory endpoints are described in Table 2.
compound,measurement,setting,value
"CC(C)(C=C(C#N)C(=O)N1CCC[C@@H](n2nc(-c3ccc(Oc4ccccc4)cc3F)c3c(N)ncnc32)C1)N1CCN(C2COC2)CC1 (mixture of isomers) [rilzabrutinib, (R)-2-[3-[4-amino-3-(2-fluoro-4-phenoxy-phenyl)pyrazolo[3,4-d]pyrimidin-1-yl]piperidine-1-carbonyl]-4-methyl-4-[4-(oxetan-3-yl)piperazin-1-yl]pent-2-enenitrile]","AQLQ(S) Activity limitation score, Mean","Week 4, 400 mg TID",5.15
same,"AQLQ(S) Activity limitation score, Median","Week 4, 400 mg TID",5.18
same,"AQLQ(S) Activity limitation score, change from baseline, LS Mean","Week 4, 400 mg TID",0.34
same,"AQLQ(S) Activity limitation score, change from baseline, Mean","Week 4, 400 mg TID",0.16
same,"AQLQ(S) Activity limitation score, change from baseline, Median","Week 4, 400 mg TID",0.09
same,"AQLQ(S) Emotional function score, Mean","Week 4, 400 mg TID",5.37
same,"AQLQ(S) Emotional function score, Median","Week 4, 400 mg TID",5.40
same,"AQLQ(S) Emotional function score, change from baseline, LS Mean","Week 4, 400 mg TID",0.35
same,"AQLQ(S) Emotional function score, change from baseline, Mean","Week 4, 400 mg TID",0.22
same,"AQLQ(S) Emotional function score, change from baseline, Median","Week 4, 400 mg TID",0.20
same,"AQLQ(S) Environmental stimuli score, Mean","Week 4, 400 mg TID",4.78
same,"AQLQ(S) Environmental stimuli score, change from baseline, LS Mean","Week 4, 400 mg TID",0.30
same,"AQLQ(S) Environmental stimuli score, change from baseline, Mean","Week 4, 400 mg TID",0.12
same,"AQLQ(S) Environmental stimuli score, change from baseline, Median","Week 4, 400 mg TID",0.25
same,"AQLQ(S) Global score, Mean","Week 4, 400 mg TID",5.16
same,"AQLQ(S) Global score, Median","Week 4, 400 mg TID",5.03
same,"AQLQ(S) Global score, change from baseline, LS Mean","Week 4, 400 mg TID",0.33
same,"AQLQ(S) Global score, change from baseline, Mean","Week 4, 400 mg TID",0.19
same,"AQLQ(S) Global score, change from baseline, Median","Week 4, 400 mg TID",0.13
same,"AQLQ(S) Symptoms score, Mean","Week 4, 400 mg TID",5.19
same,"AQLQ(S) Symptoms score, Median","Week 4, 400 mg TID",5.08
same,"AQLQ(S) Symptoms score, change from baseline, LS Mean","Week 4, 400 mg TID",0.38
same,"AQLQ(S) Symptoms score, change from baseline, Mean","Week 4, 400 mg TID",0.22
same,"AQLQ(S) Symptoms score, change from baseline, Median","Week 4, 400 mg TID",0.25
same,"AQLQ(S) Emotional function score, change from baseline, LS Mean Diff vs. placebo","Week 4, 400 mg TID, 95% CI −0.12, 0.54",0.21
same,"AQLQ(S) Symptoms score, change from baseline, LS Mean Diff vs. placebo","Week 4, 400 mg TID, 95% CI −0.14, 0.44",0.15
same,"AQLQ(S) Global score, change from baseline, LS Mean Diff vs. placebo","Week 4, 400 mg TID, 95% CI −0.18, 0.36",0.09
same,"AQLQ(S) Activity limitation score, change from baseline, LS Mean Diff vs. placebo","Week 4, 400 mg TID, 95% CI −0.20, 0.35",0.08
same,"AQLQ(S) Environmental stimuli score, change from baseline, LS Mean Diff vs. placebo","Week 4, 400 mg TID, 95% CI −0.37, 0.30",−0.03
same,"AQLQ(S) Activity limitation score, Mean","Week 8, 400 mg BID",5.72
same,"AQLQ(S) Activity limitation score, Median","Week 8, 400 mg BID",5.91
same,"AQLQ(S) Activity limitation score, change from baseline, LS Mean","Week 8, 400 mg BID",0.89
same,"AQLQ(S) Activity limitation score, change from baseline, Mean","Week 8, 400 mg BID",0.96
same,"AQLQ(S) Activity limitation score, change from baseline, Median","Week 8, 400 mg BID",0.82
same,"AQLQ(S) Emotional function score, Mean","Week 8, 400 mg BID",6.12
same,"AQLQ(S) Emotional function score, Median","Week 8, 400 mg BID",6.20
same,"AQLQ(S) Emotional function score, change from baseline, LS Mean","Week 8, 400 mg BID",1.06
same,"AQLQ(S) Emotional function score, change from baseline, Mean","Week 8, 400 mg BID",0.87
same,"AQLQ(S) Emotional function score, change from baseline, Median","Week 8, 400 mg BID",0.60
same,"AQLQ(S) Environmental stimuli score, Mean","Week 8, 400 mg BID",5.19
same,"AQLQ(S) Environmental stimuli score, change from baseline, LS Mean","Week 8, 400 mg BID",0.66
same,"AQLQ(S) Environmental stimuli score, change from baseline, Mean","Week 8, 400 mg BID",0.73
same,"AQLQ(S) Environmental stimuli score, change from baseline, Median","Week 8, 400 mg BID",0.50
same,"AQLQ(S) Global score, Mean","Week 8, 400 mg BID",5.79
same,"AQLQ(S) Global score, Median","Week 8, 400 mg BID",5.88
same,"AQLQ(S) Global score, change from baseline, LS Mean","Week 8, 400 mg BID",0.92
same,"AQLQ(S) Global score, change from baseline, Mean","Week 8, 400 mg BID",0.90
same,"AQLQ(S) Global score, change from baseline, Median","Week 8, 400 mg BID",0.63
same,"AQLQ(S) Symptoms score, Mean","Week 8, 400 mg BID",5.93
same,"AQLQ(S) Symptoms score, Median","Week 8, 400 mg BID",6.00
same,"AQLQ(S) Symptoms score, change from baseline, LS Mean","Week 8, 400 mg BID",0.99
same,"AQLQ(S) Symptoms score, change from baseline, Mean","Week 8, 400 mg BID",0.91
same,"AQLQ(S) Symptoms score, change from baseline, Median","Week 8, 400 mg BID",0.83
same,"AQLQ(S) Environmental stimuli score, change from baseline, LS Mean Diff vs. placebo","Week 8, 400 mg BID, 95% CI 0.03, 1.33",0.68
same,"AQLQ(S) Symptoms score, change from baseline, LS Mean Diff vs. placebo","Week 8, 400 mg BID, 95% CI 0.35, 1.18",0.76
same,"AQLQ(S) Global score, change from baseline, LS Mean Diff vs. placebo","Week 8, 400 mg BID, 95% CI 0.39, 1.20",0.79
same,"AQLQ(S) Activity limitation score, change from baseline, LS Mean Diff vs. placebo","Week 8, 400 mg BID, 95% CI 0.39, 1.21",0.80
same,"AQLQ(S) Emotional function score, change from baseline, LS Mean Diff vs. placebo","Week 8, 400 mg BID, 95% CI 0.42, 1.54",0.98
same,"AQLQ(S) Activity limitation score, Mean","Week 8, 400 mg TID",5.28
same,"AQLQ(S) Activity limitation score, Median","Week 8, 400 mg TID",5.27
same,"AQLQ(S) Activity limitation score, change from baseline, LS Mean","Week 8, 400 mg TID",0.42
same,"AQLQ(S) Activity limitation score, change from baseline, Mean","Week 8, 400 mg TID",0.29
same,"AQLQ(S) Activity limitation score, change from baseline, Median","Week 8, 400 mg TID",0.36
same,"AQLQ(S) Emotional function score, Mean","Week 8, 400 mg TID",5.52
same,"AQLQ(S) Emotional function score, Median","Week 8, 400 mg TID",5.40
same,"AQLQ(S) Emotional function score, change from baseline, LS Mean","Week 8, 400 mg TID",0.51
same,"AQLQ(S) Emotional function score, change from baseline, Mean","Week 8, 400 mg TID",0.37
same,"AQLQ(S) Emotional function score, change from baseline, Median","Week 8, 400 mg TID",0.40
same,"AQLQ(S) Environmental stimuli score, Mean","Week 8, 400 mg TID",4.90
same,"AQLQ(S) Environmental stimuli score, change from baseline, LS Mean","Week 8, 400 mg TID",0.36
same,"AQLQ(S) Environmental stimuli score, change from baseline, Mean","Week 8, 400 mg TID",0.24
same,"AQLQ(S) Environmental stimuli score, change from baseline, Median","Week 8, 400 mg TID",0.25
